Test system: Shh-N signaling
Assay: Autoprocessing-independent Shh-N signaling assay (Gli-luciferase, control)
Assay type: cell-based, mouse
Conditions: 1 μM KAAD-cyclopamine
Protocol: This cell-based assay (FIGS. 1A and 1B) made use of Hh-responsive 3T3 mouse cells stably transfected with a Shh plasmid expressing full length Shh protein that undergoes autoprocessing to produce functionally active Shh protein. Cells incubated with pre-spliced N-Shh protein were used as a control. Shh signaling was assayed in control and treated cells using with dual luciferase reporter assay of luciferase activity expressed from an integrated copy of a Gli-luciferase reporter gene linked to of 8 tandem repeats of Gli transcription factor-binding sites, normalized to activity of a Renilla gene under the control of minimum TK promoter, to monitor toxicity and cell survival. Inhibition was confirmed by Western blot analysis of Hh autoprocessing (FIG. 2). Additional cell-based assays for testing the activities of candidate Hh autoprocessing inhibitors in blocking full-length Hh signaling include the measurement of Hh target gene expression (Patched, Gli , IGF2, N-myc; for example, via a luciferase-based assay) and chondrocyte differentiation of 10T½ cells. Persons skilled in the art will note that the above assays are also suitable for use in a cell-free assay system.

Question: How did the “Effect on Gli-luciferase activity in response to Shh-N” value turn out when CC1=C2C[C@H]3[C@@H](CC=C4CC(=O)CC[C@@]43C)[C@@H]2CC[C@]12O[C@@H]1C[C@H](C)CN(CCNC(=O)CCCCCNC(=O)CCc3ccccc3)[C@H]1[C@H]2C [KAAD-cyclopamine] was run?
Answer: inhibited Gli-luciferase activity
